In ChEMBL document CHEMBL5230141, “Focused Libraries for Epigenetic Drug Discovery: The Importance of Isosteres” (J Med Chem, 2021):
pEC50, pKd: −log10 of the molar value.

Key:
[1] = biological target: Histone-lysine N-methyltransferase EZH2 (Homo sapiens, UniProt Q15910); experiment: Inhibition of EZH2 (unknown origin)
[2] = Inhibition of PI3K (unknown origin); parameters: species or system Homo sapiens

Histone-lysine N-methyltransferase EZH2, sequence (Q15910 whole entry): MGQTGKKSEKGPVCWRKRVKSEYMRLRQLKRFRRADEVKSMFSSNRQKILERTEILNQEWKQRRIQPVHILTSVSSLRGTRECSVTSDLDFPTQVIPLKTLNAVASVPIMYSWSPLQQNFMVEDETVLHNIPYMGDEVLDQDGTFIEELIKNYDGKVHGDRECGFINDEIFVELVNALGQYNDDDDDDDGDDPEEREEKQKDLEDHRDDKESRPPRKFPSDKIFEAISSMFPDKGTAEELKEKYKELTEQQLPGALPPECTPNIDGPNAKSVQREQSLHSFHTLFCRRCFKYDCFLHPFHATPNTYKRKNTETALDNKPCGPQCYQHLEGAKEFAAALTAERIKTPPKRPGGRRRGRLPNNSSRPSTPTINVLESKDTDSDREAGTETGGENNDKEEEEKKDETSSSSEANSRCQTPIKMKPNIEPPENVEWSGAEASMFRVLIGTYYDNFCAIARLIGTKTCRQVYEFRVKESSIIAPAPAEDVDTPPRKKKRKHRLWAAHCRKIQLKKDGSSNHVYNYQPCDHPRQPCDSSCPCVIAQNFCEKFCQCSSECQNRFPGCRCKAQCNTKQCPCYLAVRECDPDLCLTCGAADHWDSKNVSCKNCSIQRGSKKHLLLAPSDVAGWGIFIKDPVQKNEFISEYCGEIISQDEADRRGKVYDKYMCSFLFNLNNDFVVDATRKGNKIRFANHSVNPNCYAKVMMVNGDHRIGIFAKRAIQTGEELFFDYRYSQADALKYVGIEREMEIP

Row | pEC50 [1] | Compound | pKd [2]
1 | 5.47 | Cc1cc(C)c(CNC(=O)c2cc(C)n(C3CCCCC3)c2C)c(=O)[nH]1 | –
2 | – | CC(C)Oc1ccc(-c2nn([C@@H](C)c3oc4ccc(F)cc4c(=O)c3-c3cccc(F)c3)c3ncnc(N)c23)cc1F [UMBRALISIB] | 8.21
